Measured values from patent publication US20160324885A1, “COMPOSITION CONTAINING MODIFIED DERIVATIVES OF A CYTIDINE ANTIMETABOLITE FOR THE TREATMENT OF SUSCEPTIBLE DISEASE” (ASTERIAPHARMA GMBH, priority 2013, published 2016).

Experiments:
HeLa cells [1] = assay: WST-1 cell proliferation assay, HeLa cells; assay type: cell-based, human; parameters: dose or concentration left out as unconfirmed; details: 5 days after start of treatment, WST-1, relative to untreated cells
Experimental: FIG. 1. Inhibition of proliferation of human cancer cells treated with either dFdC or homo-oligomers and hetero-oligomers containing dFdC. HeLa cells growing on 96-well plates (5000 cells/well) were treated with: 1) TpF; 2) FpF; 3) TpFpF; 4) FpFpF; 5) dFdC. The concentration of drug in the culture medium […]. Cell proliferation was measured 5 days after treatment was started using the WST-1 assay. The mean value obtained with untreated cells was set at 1.
Methods: Cervical cancer cell lines (HeLa, SiHa, CaSki and C-33) were cultured at 37° C./5% CO2 in medium containing DMEM with Glutamax™, 1 mM sodium pyruvate, penicillin/streptomycin (PS) and 10% fetal bovine serum (FBS) (Invitrogen/LifeTechnologies). […] The cells were incubated with WST-1 for 1 hour at 37° C./5% CO2, then the amount of formazan dye produced was quantified using a scanning spectrophotometer (ELISA plate reader). The absorbance was measured with a test wavelength at 450 nm and a reference wavelength at 630 nm. Then, the 630 nm background absorbance was subtracted from the 450 nm measurement. […]
2) The FpFpF trinucleotide was tested in comparison with dFdC for its ability to inhibit cell growth of tumor cells of different origin: pancreatic cancer (MIA PaCa-2, ASPC) cervical (HeLa, CaSki, C33A) and hepatic (Huh-7) cancers. […] At this time cell proliferation was quantified using the WST-1 assay as described above. […]

Panc-1 cells = assay: Inhibition of proliferation of Panc-1 cells; assay type: cell-based; details: Homo sapiens, read-out: ID50 (the source's name)
Experimental: Methods: The FpFpF trinucleotide was coupled to lipid as described in the Example 3 for the Palmitoyl-trinucleotide (5′-FpFpF-3′-Pal). Panc-1 cells were plated one day before treatment at a density of 5000 cells/well in a 96-well plate with 100 μl/well of medium RPMI/Glutamax™/1 mM sodium pyruvate/PS/10% FBS and cultured at 37° C./5% CO2. Treatments (6 wells per condition) with wither dFdC, FpFpF and FpFpF-Pal were carried out at the indicated concentrations.

MIA PaCa-2 cells = assay: Proliferation of MIA PaCa-2 cells treated with drug pre-incubated with human serum; assay type: cell-based; details: MIA PaCa-2, serum pre-incubation 2 hours at 37° C., then 72 hours on cells
Experimental: (§1) Methods: The cells were seeded in 96-well plates one day before treatment at a density of 5000 cells/well in 100 μl/well of medium DMEM/Glutamax™/1 mM sodium pyruvate/PS/10%/FBS and cultured at 37° C./5% CO2. Separate serum dilutions of dFdC and FpFpF trinucleotide were prepared from 1 mM stock solutions to a final concentration of 20 μmol/L. The sera aliquots containing either drug were incubated at 37° C./5% CO2 for the indicated times before they were added to the cells to the indicated final concentrations. The cells were incubated for further 72 hours after which the cell proliferation was quantified using the WST-1 assay. Two controls were run in parallel: untreated cells and cells treated with dFdC or FpFpF trinucleotides that were not incubated with serum.

[2] = in vivo; cited from earlier work
HeLa cells [3] = assay: HeLa xenograft tumor growth delay in immunodeficient mice; assay type: in vivo; details: 10 mg/kg intraperitoneally every fourth day, four doses
Experimental: Objective: To compare the anti-tumor activities of FpFpF trinucleotide and dFdC in vivo in a xenograft model. HeLa cells and immunodeficient mice were used in this assay as described below.
Methods. Immunodeficient CAnN.Cg-Fox1^nu/Cr1 (BALB/c) mice (The Jackson Laboratories) are well suited for the xenotransplantation of human tumors. HeLa cells (5×10^6) were mixed 1:1 with matrigel in a final volume of 0.1 ml and then injected subcutaneously in the right flank of each mouse. Treatments were initiated at the time when the tumor volume reached approximately 200 mm^3. The drugs (FpFpF trinucleotide or dFdC) were administered intraperitoneally at 10 mg/kg every fourth day for a total of four doses. Tumor volumes were calculated with the ellipsoid volume formula (L×W×H×π/6) (Tomayko and Reynolds, 1989). Tumor volume values were transformed to a log scale. A two-way analysis of variance by time and treatment was used. The data are finally expressed as means and standard errors for each treatment group against time. A Weibull distribution was assumed to calculate mean times and standard errors for each treatment group. Tumor growth delay was defined as the difference in mean time between each treated group and the control group.

[4] = mice, normal tissues and subcutaneous sarcoma tissue; cited from earlier work
HeLa cells [5] = assay: Proliferation of HeLa cells treated with drug pre-incubated with human serum; assay type: cell-based; details: serum pre-incubation 2 hours at 37° C., then 72 hours on cells
Experimental: as §1

[6] = following intravenous administration; cited from earlier work

IC50 (Panc-1 cells) [µM]	Compound	inhibition of cell proliferation (HeLa cells [1]) [%]	inhibition of proliferation after pre-incubation of drug with human serum (MIA PaCa-2 cells) [%]	excreted unprocessed in the urine [2]	Tumor Growth Delay at 500 mm^3, Mean ± S.E.M. (HeLa cells [3]; tumor size 500 mm^3) [days]	Tumor Growth Delay at 700 mm^3, Mean ± S.E.M. (HeLa cells [3]; tumor size 700 mm^3) [days]	Tumor Growth Delay at 900 mm^3, Mean ± S.E.M. (HeLa cells [3]; tumor size 900 mm^3) [days]	time radiolabeled dFdC remains in tissues [4]	inhibition of proliferation after pre-incubation of drug with human serum (HeLa cells [5]) [%]	half-life in the human plasma [6] [min]
	2′-deoxy-2′,2′-difluorocytidinyl 3′-5′ phosphate 2′-deoxy-2′,2′-difluorocytidine [FpF]	~56								
12.2	Nc1ccn([C@@H]2O[C@H](CO)[C@@H](O)C2(F)F)c(=O)n1 [dFdC, 2′.2′-difluoro 2′-deoxycytidine]		10	less than 10%	2.8 ± 0.3	4.9 ± 0.6	7.7 ± 0.5	up to 3 hours	5	8 to 17
	thymidinyl 3′-5′ phosphate 2′-deoxy-2′,2′-difluorocytidine [TpF]	19								
